Assay results from paper PMC4588877, “Guanine nucleotide exchange factor 2 for Rab5 proteins coordinated with GLUP6/GEF regulates the intracellular transport of the proglutelin from the Golgi apparatus to the protein storage vacuole in rice endosperm” (Journal of Experimental Botany, 2015).
pKd: −log10 of the molar value.

What was measured:
GLUP4/Rab5a (rice) = GLUP4/Rab5a (rice) (UniProt Q0ILQ6); assay: SPR; BIACORE J; GLUP4/Rab5a immobilised on Sensor Chip CM5; Rab5-GEF2 or GLUP6/GEF (1.5, 3.5, 5, 6.5, 10.5 μM) applied for 120 s at 30 μl/min in 10 mM HEPES-NaOH pH 7.4, 0.15 M NaCl, 0.5 mM MgCl2, 10 mM GDP, 0.1% Triton X-100; apparent KD from association and dissociation curves
Rab5b = molecular target: T1, Rab5b (Oryza sativa, UniProt Q10RN9); assay: GDP/GMP-PNP exchange, Trp intrinsic fluorescence (ex […] nm, em […] nm); type: binding; conditions: 1 µM GST-Rab preloaded with GDP; 0.1 mM GMP-PNP; GST-GLUP6/GEF or GST-Rab5-GEF2 0-1 µM as exchange factor; 20 mM Tris-HCl pH 8.0, 150 mM NaCl, 0.5 mM MgCl2
T1 construct: gene Os03g0151900; GST fusion (pGEX 4T-1), E. coli BL21 (DE3); tag kept
T1 sequence (Q10RN9 1-199): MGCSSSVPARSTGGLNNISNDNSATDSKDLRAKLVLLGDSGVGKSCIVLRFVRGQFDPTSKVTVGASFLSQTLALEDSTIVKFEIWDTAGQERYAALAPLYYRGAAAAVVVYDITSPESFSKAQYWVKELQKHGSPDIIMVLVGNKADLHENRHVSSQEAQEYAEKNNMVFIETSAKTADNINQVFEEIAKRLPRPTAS

Rab5c = molecular target: T2, Rab5c (Oryza sativa, UniProt Q75HA2); assay: as above; type: binding; conditions: 1 µM GST-Rab preloaded with GDP; 0.1 mM GMP-PNP; GST-GLUP6/GEF or GST-Rab5-GEF2 0-1 µM as exchange factor; 20 mM Tris-HCl pH 8.0, 150 mM NaCl, 0.5 mM MgCl2
T2 construct: gene Os03g0666500; GST fusion (pGEX 4T-1), E. coli BL21 (DE3); tag kept
T2 sequence (Q75HA2 1-203): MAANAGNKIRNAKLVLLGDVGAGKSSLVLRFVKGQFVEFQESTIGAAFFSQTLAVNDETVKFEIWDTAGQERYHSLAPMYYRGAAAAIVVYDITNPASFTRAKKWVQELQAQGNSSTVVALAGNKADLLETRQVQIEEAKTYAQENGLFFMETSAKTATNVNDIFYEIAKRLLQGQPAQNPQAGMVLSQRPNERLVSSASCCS

GLUP4/Rab5a = molecular target: T3, GLUP4/Rab5a (Oryza sativa, UniProt Q0ILQ6); assay: as above; type: binding; conditions: 1 µM GST-Rab preloaded with GDP; 0.1 mM GMP-PNP; GST-Rab5-GEF2 0-1 µM as exchange factor; 20 mM Tris-HCl pH 8.0, 150 mM NaCl, 0.5 mM MgCl2
T3 construct: GST fusion (pGEX 4T-1), E. coli BL21 (DE3); tag kept
T3 sequence (Q0ILQ6 1-203): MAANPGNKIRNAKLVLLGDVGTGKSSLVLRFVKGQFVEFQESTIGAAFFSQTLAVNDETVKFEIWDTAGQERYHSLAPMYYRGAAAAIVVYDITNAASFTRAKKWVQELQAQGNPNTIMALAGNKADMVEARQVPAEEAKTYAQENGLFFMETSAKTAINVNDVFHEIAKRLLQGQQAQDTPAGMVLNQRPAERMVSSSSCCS

Molecule | pKd (GLUP4/Rab5a (rice)) | GDP/GMP-PNP exchange, Trp intrinsic fluorescence (ex 298 nm, em 340 nm) (Rab5b) | GDP/GMP-PNP exchange, Trp intrinsic fluorescence (ex 298 nm, em 340 nm) (Rab5c) | GDP/GMP-PNP exchange, Trp intrinsic fluorescence (ex 298 nm, em 340 nm) (GLUP4/Rab5a)
GLUP6/GEF (natural protein) | 5.68 | – | – | –
Rab5-GEF2 (natural protein) | 5.77 | – | – | –
Nc1nc2c(ncn2[C@@H]2O[C@H](COP(=O)(O)OP(=O)(O)NP(=O)(O)O)[C@@H](O)[C@H]2O)c(=O)[nH]1 [GMP-PNP] | – | Rab5b and Rab5c were activated by GLUP6/GEF in a dose-dependent manner | Rab5b and Rab5c were activated by GLUP6/GEF in a dose-dependent manner | Rab5-GEF2 activated GLUP4/Rab5a, the plant-specific Rab5b, and Rab5c in a dose-dependent manner
